Reference: patent US8623661B2, “Iron chelating agent, method for producing same, method for determining amount of iron ions and method for trapping iron ions” (National University Corporation Asahikawa Medical College, priority 2008, dated 2014)

Assays:
[1] = target: T1, transferrin iron complex (holo-Transferrin (hTf), human) (Homo sapiens, UniProt P02787); experiment: Evaluation D: capture of iron ions from transferrin iron complex; assay type: binding
T1 construct: purchased Sigma Corporation T0665-50MG
T1 sequence (P02787 20-698, one chain of several): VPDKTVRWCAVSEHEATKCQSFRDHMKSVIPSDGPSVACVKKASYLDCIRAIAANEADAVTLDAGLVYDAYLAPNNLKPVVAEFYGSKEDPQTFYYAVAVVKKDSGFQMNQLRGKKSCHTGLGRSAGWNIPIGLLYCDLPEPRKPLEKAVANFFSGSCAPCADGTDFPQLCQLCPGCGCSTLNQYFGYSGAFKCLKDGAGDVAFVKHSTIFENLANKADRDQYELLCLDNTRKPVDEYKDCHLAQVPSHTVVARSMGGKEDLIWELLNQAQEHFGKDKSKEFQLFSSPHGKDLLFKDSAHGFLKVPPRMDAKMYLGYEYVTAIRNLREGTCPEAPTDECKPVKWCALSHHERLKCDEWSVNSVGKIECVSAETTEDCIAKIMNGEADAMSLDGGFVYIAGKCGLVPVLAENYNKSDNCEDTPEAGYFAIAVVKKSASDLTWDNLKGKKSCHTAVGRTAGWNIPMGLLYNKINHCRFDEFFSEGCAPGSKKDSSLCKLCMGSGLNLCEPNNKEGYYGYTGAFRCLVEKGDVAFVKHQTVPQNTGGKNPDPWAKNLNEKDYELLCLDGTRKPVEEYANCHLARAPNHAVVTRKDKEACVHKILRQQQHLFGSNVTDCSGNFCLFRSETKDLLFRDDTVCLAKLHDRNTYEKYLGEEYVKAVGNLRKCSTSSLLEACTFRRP
Procedure: Evaluation was carried out by the following evaluation method D with respect to properties whether iron ions were captured from the transferrin iron complex (transferrin iron complex in which transferrin is chelated to iron ions) by the iron chelating agent according to Examples 1 to 2.
The iron chelating agent according to Example 1 was dissolved in 1×D-PBS (pH 7.2) to prepare an iron chelating agent solution (“Fe-Ser•Na (5 mM)”) having an iron chelating agent concentration of 5 mM, in the same manner as the preparation method of the iron chelating agent in evaluation A of the iron chelating agent.
Further, as described above, the iron chelating agent according to Example 2 was dissolved in 1×D-PBS (pH 7.2) to prepare an iron chelating agent solution (“Fe-His•Na (5 mM)”) having an iron chelating agent concentration of 5 mM.
Further, 800 mM HEDTA solution as the iron chelating agent according to Comparative Example 3 was prepared as described above. 13.76 g of crystals were taken in a 50 mL conical tube, 25 mL of Milli-Q water was added and dissolution performed, and then adjustment to pH 7.0 was performed using concentrated hydrochloric acid (35 to 37%) and the total amount was adjusted to 50 mL using Milli-Q water (HEDTA solution (800 mM)). HEDTA solution (“HEDTA solution (5 mM)”) having a concentration of HEDTA of 5 mM was prepared using 1×D-PBS (pH 7.2).
Further, 800 mM solution (pH 7.0) was prepared by using NTA2Na and NTA3Na as iron chelating agents according to Comparative Example 1 as described above. 9.4 g of NTA2Na was dissolved in Milli-Q water and the total volume was made up to 50 mL (referred to as “NTA2Na solution (800 mM)” in some cases). Meanwhile, 11.0 g of NTA3Na was dissolved in Milli-Q water and the total volume was made up to 50 mL (“NTA3Na solution (800 mM)”). NTA2Na solution (800 mM) (pH 6.3) and NTA3Na solution (800 mM) (pH 11.3) were mixed to produce 800 mM of NTA solution with pH 7.0. NTA solution (“NTA solution (5 mM)”) having a concentration of NTA of 5 mM was prepared by using 1×D-PBS (pH 7.2).
A commercially available transferrin iron complex (holo-Transferrin (hTf), human, Code T0665-50MG, Lot 095K1633, manufactured by Sigma Corporation) was dissolved in 1×D-PBS (pH 7.2) to prepare a transferrin iron complex solution having a concentration of iron ions (iron ions which are transferrin-bound iron) of 50 μM.
50 μl of 50 μM transferrin iron complex solution was taken in a 1.5 mL sample tube, 50 μl of each of iron chelating agent solutions (Fe-Ser•Na (5 mM), Fe-His•Na (5 mM), NTA solution (5 mM), HEDTA solution (5 mM)) was added thereto and left at room temperature under light shielding for 24 hours. 50 μl of various reaction liquids was taken in a centrifugal ultrafiltration unit (trade name “Amicon Ultra-4 Ultracel-30k” UFC8030, manufactured by Millipore Corporation), and 450 μl of 1×D-PBS (pH 7.2) was added thereto, centrifugation was carried out at 3,500 rpm and 20° C. for 30 minutes, and transferrin and each low molecular chelating agents were separated (first time). After centrifugation, the filtrate was discarded. 450 μl of 1×D-PBS (pH 7.2) was added again to the solution (about 50 μl) containing transferrin concentrated in a unit and centrifugation was carried out with the same conditions (second time). A solution containing transferrin concentrated in a unit was recovered after the second time of centrifugation and the absorbance at the wavelength of 466 nm was measured using a spectrophotometer (trade name “Spectrophotometer DU 640”, manufactured by Beckman Coulter).

[2] = test system: iron nitrilotriacetate complex (Fe-NTA); experiment: Evaluation B: chelating ability with iron, absorbance after adding chelating agent to iron nitrilotriacetate complex (Fe-NTA) solution; assay type: binding; conditions: for [B] absorbance after addition of iron chelating agent / [B]-[A]: 470 nm; for [B]-[A]: minus blank
Procedure: Evaluation was carried out by the following evaluation method B as to whether the iron chelating agent according to Example 1 had chelating ability with iron.
An iron chelating agent solution (Fe-Ser•Na (50 mM)) having an iron chelating agent concentration of 50 mM was prepared in the same manner as the preparation method of the iron chelating agent solution in evaluation method A of the iron chelating agent.
Ferric chloride-6 hydrate FeCl3.6H2O (MW270.30) crystals were dissolved in Milli-Q water to prepare an 80 mM solution (A liquid). Meanwhile, 160 mM of nitrilotriacetic acid solution (B liquid) was prepared by dissolving crystals of the free salt of NTA (191.14) in 6N hydrochloric acid. 10 mL of A liquid and 10 mL of B liquid was taken in a beaker, and sodium hydrogen carbonate NaHCO3 crystals were added bit by bit while stirring slowly. When gas generation was suppressed and the solution changed to a dark green color, the addition of NaHCO3 was completed. Finally, iron nitrilotriacetate complex solution “Fe-NTA solution (20 mM)” having an iron ion concentration of 20 mM made up to 40 mL was prepared.
Further, 1×D-PBS (pH 7.2) was added to Fe-NTA solution (20 mM) to prepare an iron nitrilotriacetate complex solution having a concentration of iron ions of 2 mM (“Fe-NTA solution (2 mM)”).
Iron nitrilotriacetate complex solution [Fe-NTA solution (20 mM), Fe-NTA solution (2 mM)], and 1×D-PBS (pH 7.2) were mixed at the ratios shown in Tables 3 to 4, the absorbance of the mixture (wavelength 470 nm) was measured by using a spectrophotometer (trade name “NanoDrop ND-1000 Full-spectrum UV/Vis Spectrophotometer”, manufactured by SCRUM Corporation, UV-Vis Module, Measure), and the absorbance of blank ([A] in Tables 3 to 4) was determined. Then, 158 μl of Fe-Ser•Na (50 mM) was added to the mixture, the absorbance (wavelength 470 nm) was measured as described above, and the absorbance after the addition of the iron chelating agent according to Examples ([B] in Tables 3 to 4) was determined.

[3] = Fe-NTA solution (2 mM) 0 μl + 1xD-PBS 160 μl + Fe-Ser•Na (50 mM) 158 μl
[4] = Fe-NTA solution (2 mM) 10 μl + 1xD-PBS 150 μl + Fe-Ser•Na (50 mM) 158 μl
[5] = Fe-NTA solution (2 mM) 20 μl + 1xD-PBS 140 μl + Fe-Ser•Na (50 mM) 158 μl
[6] = Fe-NTA solution (2 mM) 40 μl + 1xD-PBS 120 μl + Fe-Ser•Na (50 mM) 158 μl
[7] = Fe-NTA solution (2 mM) 80 μl + 1xD-PBS 80 μl + Fe-Ser•Na (50 mM) 158 μl
[8] = Fe-NTA solution (2 mM) 160 μl + 1xD-PBS 0 μl + Fe-Ser•Na (50 mM) 158 μl
[9] = Fe-NTA solution (20 mM) 0 μl + 1xD-PBS 160 μl + Fe-Ser•Na (50 mM) 158 μl
[10] = Fe-NTA solution (20 mM) 10 μl + 1xD-PBS 150 μl + Fe-Ser•Na (50 mM) 158 μl
[11] = Fe-NTA solution (20 mM) 20 μl + 1xD-PBS 140 μl + Fe-Ser•Na (50 mM) 158 μl
[12] = Fe-NTA solution (20 mM) 40 μl + 1xD-PBS 120 μl + Fe-Ser•Na (50 mM) 158 μl
[13] = Fe-NTA solution (20 mM) 80 μl + 1xD-PBS 80 μl + Fe-Ser•Na (50 mM) 158 μl
[14] = Fe-NTA solution (20 mM) 160 μl + 1xD-PBS 0 μl + Fe-Ser•Na (50 mM) 158 μl

O=C(O)C(CO)NCc1ccccc1O (stereo not drawn) [Example 1, o-[(1-carboxy-2-hydroxyethyl)-amino-methyl]-phenol]
capture of iron ions from the transferrin iron complex ([1]; conclusion from Table 5): does not remove iron ions of the transferrin iron complex | change of absorbance (wavelength 466 nm) after addition to the transferrin iron complex solution ([1]; conclusion from Table 5): increased | hTf residual ratio (%) ([1]; relative to non-treated holo-Transferrin, 24 hours with 5 mM chelator solution): 104.32% | Absorbance (466 nm) ([1]; transferrin fraction after 24 hours at room temperature with 5 mM chelator solution and 50 μM transferrin iron complex solution, ultrafiltration): 0.0772 | [B] absorbance after addition of iron chelating agent [2, 3]: 0.011 | [B]-[A] [2, 3]: 0.007 | [B] absorbance after addition of iron chelating agent [2, 4]: 0.017 | [B]-[A] [2, 4]: 0.014 | [B] absorbance after addition of iron chelating agent [2, 5]: 0.026 | [B]-[A] [2, 5]: 0.023 | [B] absorbance after addition of iron chelating agent [2, 6]: 0.041 | [B]-[A] [2, 6]: 0.036 | [B] absorbance after addition of iron chelating agent [2, 7]: 0.075 | [B]-[A] [2, 7]: 0.071 | [B] absorbance after addition of iron chelating agent [2, 8]: 0.135 | [B]-[A] [2, 8]: 0.125 | [B] absorbance after addition of iron chelating agent [2, 9]: 0.008 | [B]-[A] [2, 9]: 0.005 | [B] absorbance after addition of iron chelating agent [2, 10]: 0.081 | [B]-[A] [2, 10]: 0.077 | [B] absorbance after addition of iron chelating agent [2, 11]: 0.163 | [B]-[A] [2, 11]: 0.153 | [B] absorbance after addition of iron chelating agent [2, 12]: 0.322 | [B]-[A] [2, 12]: 0.296 | [B] absorbance after addition of iron chelating agent [2, 13]: 0.731 | [B]-[A] [2, 13]: 0.676 | [B] absorbance after addition of iron chelating agent [2, 14]: 1.244 | [B]-[A] [2, 14]: 1.132 | capture of iron ions from an iron nitrilotriacetate complex ([2]; conclusion from Tables 3 to 4): iron ions can be captured | chelating ability with iron ([2]; conclusion from Tables 3 to 4): has chelating ability with iron
